The target in assay [1] is T1, Inhibitor of nuclear factor kappa-B kinase subunit beta (Homo sapiens, UniProt O14920).
T1 sequence (O14920 whole entry): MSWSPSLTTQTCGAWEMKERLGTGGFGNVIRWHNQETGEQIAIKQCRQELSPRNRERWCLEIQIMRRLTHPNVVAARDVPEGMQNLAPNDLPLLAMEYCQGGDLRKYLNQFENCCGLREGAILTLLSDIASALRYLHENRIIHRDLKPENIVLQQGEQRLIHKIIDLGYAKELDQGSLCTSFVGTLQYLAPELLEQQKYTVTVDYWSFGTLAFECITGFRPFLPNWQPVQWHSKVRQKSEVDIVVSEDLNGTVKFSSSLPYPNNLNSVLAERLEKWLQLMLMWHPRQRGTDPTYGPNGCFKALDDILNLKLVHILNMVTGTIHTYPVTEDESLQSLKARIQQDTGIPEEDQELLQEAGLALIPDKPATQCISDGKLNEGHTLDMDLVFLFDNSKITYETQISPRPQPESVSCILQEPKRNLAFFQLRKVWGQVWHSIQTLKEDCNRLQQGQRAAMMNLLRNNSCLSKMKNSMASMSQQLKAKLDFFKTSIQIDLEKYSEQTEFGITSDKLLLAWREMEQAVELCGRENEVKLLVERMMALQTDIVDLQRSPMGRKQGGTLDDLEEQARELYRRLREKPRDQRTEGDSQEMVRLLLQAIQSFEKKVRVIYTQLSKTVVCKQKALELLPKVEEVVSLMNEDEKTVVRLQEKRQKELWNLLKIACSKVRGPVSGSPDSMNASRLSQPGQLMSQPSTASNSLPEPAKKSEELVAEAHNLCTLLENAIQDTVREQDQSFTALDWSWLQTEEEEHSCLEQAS
As to the kind of experiment: IKK Kinase Inhibition Assay. Particulars: pH 7.4; 22 °C.
Method: (§1) IKK kinase activity was assessed using a time-resolved fluorescence resonance energy transfer (TR-FRET) assay. The reaction was initiated by the addition of GST-IKBalpha substrate/ATP to the reaction buffer containing IKK kinase and test compounds. After incubation, detection reagent containing antiphosphoserine IKBalpha monoclonal antibody labelled with europium chelate, and an APC-labelled anti-GST antibody was added.

For assay [2], the target named is T2, Inhibitor of nuclear factor kappa-B kinase subunit epsilon (Homo sapiens, UniProt Q14164).
T2 sequence (Q14164 whole entry): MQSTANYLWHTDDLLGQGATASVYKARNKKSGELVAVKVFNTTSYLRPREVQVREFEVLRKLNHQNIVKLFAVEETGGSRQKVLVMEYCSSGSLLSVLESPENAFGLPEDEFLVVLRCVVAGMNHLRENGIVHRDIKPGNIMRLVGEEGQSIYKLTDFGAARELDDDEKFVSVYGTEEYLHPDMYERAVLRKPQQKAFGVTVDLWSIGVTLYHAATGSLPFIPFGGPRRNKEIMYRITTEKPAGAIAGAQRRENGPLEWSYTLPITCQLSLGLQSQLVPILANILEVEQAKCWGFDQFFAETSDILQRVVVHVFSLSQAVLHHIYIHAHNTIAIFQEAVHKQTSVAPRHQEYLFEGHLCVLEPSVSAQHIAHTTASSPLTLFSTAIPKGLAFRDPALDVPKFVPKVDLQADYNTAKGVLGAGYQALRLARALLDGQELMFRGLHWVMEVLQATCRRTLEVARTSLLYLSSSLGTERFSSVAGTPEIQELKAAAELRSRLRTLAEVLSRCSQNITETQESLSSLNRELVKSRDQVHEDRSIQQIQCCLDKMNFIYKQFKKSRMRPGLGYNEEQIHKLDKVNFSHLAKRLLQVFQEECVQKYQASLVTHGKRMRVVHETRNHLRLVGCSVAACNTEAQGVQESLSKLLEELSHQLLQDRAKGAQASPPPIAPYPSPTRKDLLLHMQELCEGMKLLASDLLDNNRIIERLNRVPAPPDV
The assay is described as follows: IKK Kinase Inhibition Assay. Particulars: pH 7.4; 22 °C.
Method: as §1

Assay [3] concerns the target Serine/threonine-protein kinase PLK1 (Homo sapiens, UniProt P53350). As to the kind of experiment: Scintillation Proximity Assay (SPA). The following applies: pH 7.2; 22 °C. How it is done:
The compound inhibitory activity was determined by incubation with purified PLK1 and biotinylated peptide substrate in the presence ATP/[gamma-33P]ATP. After incubation, the phosphorylated substrate was separated from nonincorporated radioactive ATP using SPA beads. Incorporated radioactivity was measured using Packard TopCount.

Chain of Serine/threonine-protein kinase PLK1 (P53350 whole entry): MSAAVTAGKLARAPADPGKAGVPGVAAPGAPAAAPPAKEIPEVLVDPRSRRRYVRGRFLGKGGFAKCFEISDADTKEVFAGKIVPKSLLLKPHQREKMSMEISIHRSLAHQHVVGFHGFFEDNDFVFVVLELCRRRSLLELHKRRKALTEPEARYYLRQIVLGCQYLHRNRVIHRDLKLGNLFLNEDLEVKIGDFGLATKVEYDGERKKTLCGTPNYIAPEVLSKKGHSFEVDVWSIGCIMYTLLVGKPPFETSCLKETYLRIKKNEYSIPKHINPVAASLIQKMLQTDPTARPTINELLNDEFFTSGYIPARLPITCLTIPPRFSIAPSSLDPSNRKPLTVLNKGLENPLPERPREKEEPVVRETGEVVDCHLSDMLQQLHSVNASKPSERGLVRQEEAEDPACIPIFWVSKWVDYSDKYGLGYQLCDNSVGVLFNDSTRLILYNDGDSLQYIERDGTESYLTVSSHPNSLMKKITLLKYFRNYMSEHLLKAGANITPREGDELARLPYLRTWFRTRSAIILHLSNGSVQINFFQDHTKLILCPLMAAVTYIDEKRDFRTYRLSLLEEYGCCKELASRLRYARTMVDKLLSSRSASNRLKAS

`COc1cc2ncn(-c3cc(OCc4ccc(S(C)(=O)=O)cc4)c(C(N)=O)s3)c2cc1OC` [BMCL191018 Compound 39]: the IC50 in assay [1] and in assay [2] was over 15.8 µM each time. As to `COc1cc2ncn(-c3cc(OCc4ccc(S(C)(=O)=O)cc4)c(C#N)s3)c2cc1OC` [5-(5,6-dimethoxy-1H-1,3-benzodiazol-1-yl)-3-[(4-methanesulfonylphenyl)methoxy]thiophene-2-carbonitrile], the IC50 in assay [1] was over 15.8 µM. Consider `COc1cc2ncn(-c3cc(OCC4CCCO4)c(C(N)=O)s3)c2cc1OC` (stereo not given) [5-(5,6-dimethoxy-1H-1,3-benzodiazol-1-yl)-3-(oxolan-2-ylmethoxy)thiophene-2-carboxamide], for which the IC50 in assay [1] and in assay [2] was over 15.8 µM throughout. `COc1cc2ncn(-c3cc(OCc4ccccc4S(C)(=O)=O)c(C#N)s3)c2cc1OC` [5-(5,6-dimethoxy-1H-1,3-benzodiazol-1-yl)-3-[(2-methanesulfonylphenyl)methoxy]thiophene-2-carbonitrile] registered a half-inhibitory concentration (IC50) in assay [1] of over 15.8 µM. `COc1cc2ncn(-c3cc(OCC4CCCO4)c(C#N)s3)c2cc1OC` (stereo not given) [5-(5,6-dimethoxy-1H-1,3-benzodiazol-1-yl)-3-(oxolan-2-ylmethoxy)thiophene-2-carbonitrile]: the values for the IC50 in assay [3] and in assay [1] were over 10 µM and over 15.8 µM, respectively. Consider `Cc1ccc(COc2cc(-n3cnc4ccccc43)sc2C(N)=O)cc1` [BMCL191018 Compound 9], for which the results for the IC50 in assay [3] and in assay [2] were 0.126 µM and 3.98 µM, respectively.

The values above are taken from BindingDB's records for doi:10.1016/j.bmcl.2006.09.018 (Gsk, 2006).
